Starred links: 1 amine or outer side, 2 acyl side, 3 side chain; linkers in the order of their positions; H or OH if unused. Non-standard residues stand in square brackets, D forms with d. Residues, ends and D or L forms follow the SMILES beside them. *: point of attachment. Acetyl(1-naphthyl) = O=C(Cc1cccc2ccccc12)*; Tpi = O=C(O)[C@@H]1Cc2c([nH]c3ccccc23)CN1; Phe(4-Cl) = N[C@@H](Cc1ccc(Cl)cc1)C(=O)O; Glutaryl = O=C(CCCC(=O)[*:2])[*:1]; Agmatine = N=C(N)NCCCCN*; Isobutyryl = CC(C)C(=O)*; Nle = CCCC[C@H](N)C(=O)O; Abu = CC[C@H](N)C(=O)O; Aib = CC(C)(N)C(=O)O; X2 = O=C(CI)*
What follows are molecules tested against T1, rat pituitary GH-RH receptors (Rattus norvegicus, UniProt Q02644) (assay: GH-RH binding assay, competitive binding on rat anterior pituitary membrane homogenates). Conditions: competition with labelled [His1,Nle27]hGH-RH(1-32)NH2.
T1 construct: from tissue; host or cells: rat anterior pituitary (male Sprague-Dawley), crude membranes
T1 sequence (Q02644 23-464): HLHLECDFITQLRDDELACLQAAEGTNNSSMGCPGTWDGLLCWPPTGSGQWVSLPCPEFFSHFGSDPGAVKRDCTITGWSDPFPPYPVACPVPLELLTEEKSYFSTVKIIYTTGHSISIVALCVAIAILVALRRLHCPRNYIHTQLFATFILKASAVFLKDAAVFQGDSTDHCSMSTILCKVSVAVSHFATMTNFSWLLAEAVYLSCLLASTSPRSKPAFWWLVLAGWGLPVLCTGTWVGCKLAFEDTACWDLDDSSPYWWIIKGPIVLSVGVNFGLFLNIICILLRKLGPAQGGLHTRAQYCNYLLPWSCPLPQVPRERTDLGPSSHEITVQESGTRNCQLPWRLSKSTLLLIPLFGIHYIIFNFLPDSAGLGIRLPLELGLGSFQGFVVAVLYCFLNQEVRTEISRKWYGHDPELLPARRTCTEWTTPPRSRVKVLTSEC
Description: GH-RH Binding Assay. A sensitive radioreceptor binding assay was developed to determine the binding characteristics of the antagonists of GH-RH (G. Halmos, A. V. Schally et al., Receptor 3, 87-97, 1993), hereby incorporated by reference. The assay is based on binding of labelled [His^1,Nle^27 ]hGH-RH(1-32)NH2 to rat anterior pituitary membrane homogenates. Iodinated derivatives of [His^1,Nle^27 ]hGH-RH(1-32)NH2 are prepared by the chloramine-T method (F. C. Greenwood et al., Biochemistry 89:114-123, 1963), hereby incorporated by reference. Pituitaries from male Sprague-Dawley rats (250-300 g) are used to prepare crude membranes. For saturation binding analyses, membrane homogenates are incubated with at least 6 concentrations of [His^1,^25 I-Tyr^10,Nle^27 ]hGH-RH(1-32)NH2, ranging from 0.005 to 0.35 nM in the presence or absence of excess unlabelled peptide (1 μM). The pellet is counted for radioactivity in a y-counter. The affinities of the antagonist peptides tested to rat pituitary GH-RH receptors are determined in competitive binding experiments. The final binding affinities are estimated by Ki (dissociation constant of the inhibitor-receptor complex) and are determined by the Ligand PC computer program of Munson and Rodbard as modified by McPherson. Relative affinities compared to [Ac-Tyr^1,D-Arg^2 ]hGH-RH(1-29)NH2, the Standard antagonist, are calculated as the ratio of Ki of the tested GH-RH antagonist to the Ki of the Standard antagonist.
Molecule `CCCC[C@H](NC(=O)[C@@H](NC(=O)[C@H](CC(=O)O)NC(=O)[C@H](CCC(N)=O)NC(=O)[C@H](CC(C)C)NC(=O)[C@H](CC(C)C)NC(=O)[C@H](CCCCN)NC(=O)[C@H](CCCNC(=N)N)NC(=O)[C@H](C)NC(=O)[C@H](CO)NC(=O)[C@H](CC(C)C)NC(=O)[C@H](CCC(N)=O)NC(=O)[C@H](CC)NC(=O)[C@H](CC(C)C)NC(=O)[C@@H](NC(=O)[C@H](CCCCN)NC(=O)[C@H](CCCNC(=N)N)NC(=O)[C@H](Cc1ccc(O)cc1)NC(=O)[C@H](CO)NC(=O)C(C)(C)NC(=O)[C@@H](NC(=O)[C@H](Cc1ccccc1)NC(=O)[C@@H](NC(=O)[C@H](C)NC(=O)[C@H](CC(=O)O)NC(=O)[C@@H](CCCNC(=N)N)NC(=O)[C@H](Cc1ccc(O)cc1)NC(=O)C(C)C)[C@@H](C)CC)[C@@H](C)O)C(C)C)[C@@H](C)CC)C(=O)N[C@@H](CO)C(=O)N[C@@H](CCCNC(=N)N)C(N)=O` [Peptide 13, [Ibu^0,D-Arg^2,Aib^8,Abu^15,Nle^27]hGH-RH(1-29)NH2] (Isobutyryl-Y[dR]DAIFT[Aib]SYRKVL[Abu]QLSARKLLQDI[Nle]SR-NH2) has a Ki of 0.78 ± 0.06 nM. For `CCCC[C@H](NC(=O)[C@@H](NC(=O)[C@H](CC(=O)O)NC(=O)[C@H](CCC(N)=O)NC(=O)[C@H](CC(C)C)NC(=O)[C@H](CC(C)C)NC(=O)[C@H](CCCCN)NC(=O)[C@H](CCCNC(=N)N)NC(=O)[C@H](C)NC(=O)[C@H](CO)NC(=O)[C@H](CC(C)C)NC(=O)[C@H](CCC(N)=O)NC(=O)[C@H](CC)NC(=O)[C@H](CC(C)C)NC(=O)[C@@H](NC(=O)[C@H](CCCCN)NC(=O)[C@H](CCCNC(=N)N)NC(=O)[C@H](Cc1ccc(O)cc1)NC(=O)[C@H](CO)NC(=O)[C@H](CC(N)=O)NC(=O)[C@@H](NC(=O)[C@H](Cc1ccc(Cl)cc1)NC(=O)[C@@H](NC(=O)[C@H](C)NC(=O)[C@H](CC(=O)O)NC(=O)[C@@H](CCCNC(=N)N)NC(=O)[C@H](CCC(=O)O)NC(=O)CI)[C@@H](C)CC)[C@@H](C)O)C(C)C)[C@@H](C)CC)C(=O)N[C@@H](CO)C(=O)N[C@@H](CCCNC(=N)N)C(N)=O` [Peptide 8] (X2-E[dR]DAI[Phe(4-Cl)]TNSYRKVL[Abu]QLSARKLLQDI[Nle]SR-NH2), the Ki was 0.91 ± 0.01 nM. For `CCCC[C@H](NC(=O)[C@@H](NC(=O)[C@H](CC(=O)O)NC(=O)[C@H](CCC(N)=O)NC(=O)[C@H](CC(C)C)NC(=O)[C@H](CC(C)C)NC(=O)[C@H](CCCCN)NC(=O)[C@H](CCCNC(=N)N)NC(=O)[C@H](C)NC(=O)[C@H](CO)NC(=O)[C@H](CC(C)C)NC(=O)[C@H](CCC(N)=O)NC(=O)[C@H](CC)NC(=O)[C@H](CC(C)C)NC(=O)[C@@H](NC(=O)[C@H](C)NC(=O)[C@H](CCCNC(=N)N)NC(=O)[C@H](Cc1ccc(O)cc1)NC(=O)[C@H](CO)NC(=O)[C@H](CC(N)=O)NC(=O)[C@@H](NC(=O)[C@H](Cc1ccc(Cl)cc1)NC(=O)[C@@H](NC(=O)[C@H](C)NC(=O)[C@H](CC(=O)O)NC(=O)[C@@H](CCCNC(=N)N)NC(=O)[C@H](Cc1ccc(O)cc1)NC(=O)C(C)C)[C@@H](C)CC)[C@@H](C)O)C(C)C)[C@@H](C)CC)C(=O)N[C@@H](CO)C(=O)N[C@@H](CCCNC(=N)N)C(N)=O` [Peptide 15, [Ibu^0,D-Arg^2,Phe(pCl)^6,Ala^12,Abu^15,Nle^27]hGH-RH(1-29)NH2] (Isobutyryl-Y[dR]DAI[Phe(4-Cl)]TNSYRAVL[Abu]QLSARKLLQDI[Nle]SR-NH2), the Ki was 0.73 ± 0.05 nM. Work on `CCCC[C@H](NC(=O)[C@@H](NC(=O)[C@H](CC(=O)O)NC(=O)[C@H](CCC(N)=O)NC(=O)[C@H](CC(C)C)NC(=O)[C@H](CC(C)C)NC(=O)[C@H](CCCCN)NC(=O)[C@H](CCCNC(=N)N)NC(=O)[C@H](C)NC(=O)[C@H](CO)NC(=O)[C@H](CC(C)C)NC(=O)[C@H](CCC(N)=O)NC(=O)[C@H](CC)NC(=O)[C@H](CC(C)C)NC(=O)[C@@H](NC(=O)[C@H](CCCCN)NC(=O)[C@H](CCCNC(=N)N)NC(=O)[C@H](Cc1ccc(O)cc1)NC(=O)[C@H](CO)NC(=O)[C@H](CC(N)=O)NC(=O)[C@@H](NC(=O)[C@@H]1Cc2c([nH]c3ccccc23)CN1C(=O)[C@@H](NC(=O)[C@H](C)NC(=O)[C@H](CC(=O)O)NC(=O)[C@@H](CCCNC(=N)N)NC(=O)CCCC(=O)O)[C@@H](C)CC)[C@@H](C)O)C(C)C)[C@@H](C)CC)C(=O)N[C@@H](CO)C(=O)N[C@@H](CCCNC(=N)N)C(N)=O` [Peptide 12, [Glt^1,D-Arg^2,Tpi^6,Abu^15,Nle^27]hGH-RH(1-29)NH2] (Glutaryl-[dR]DAI[Tpi]TNSYRKVL[Abu]QLSARKLLQDI[Nle]SR-NH2) yielded a Ki of 0.3 ± 0.15 nM. With `CCCC[C@H](NC(=O)[C@@H](NC(=O)[C@H](CC(=O)O)NC(=O)[C@H](CCC(N)=O)NC(=O)[C@H](CC(C)C)NC(=O)[C@H](CC(C)C)NC(=O)[C@H](CCCCN)NC(=O)[C@H](CCCNC(=N)N)NC(=O)[C@H](C)NC(=O)[C@H](CO)NC(=O)[C@H](CC(C)C)NC(=O)[C@H](CCC(N)=O)NC(=O)[C@H](CC)NC(=O)[C@H](CC(C)C)NC(=O)[C@@H](NC(=O)[C@H](CCCCN)NC(=O)[C@H](CCCNC(=N)N)NC(=O)[C@H](Cc1ccc(O)cc1)NC(=O)[C@H](CO)NC(=O)[C@H](CC(N)=O)NC(=O)[C@@H](NC(=O)[C@H](Cc1ccc(Cl)cc1)NC(=O)[C@@H](NC(=O)[C@H](C)NC(=O)[C@H](CC(=O)O)NC(=O)[C@@H](CCCNC(=N)N)NC(=O)[C@H](Cc1c[nH]cn1)NC(=O)Cc1cccc2ccccc12)[C@@H](C)CC)[C@@H](C)O)C(C)C)[C@@H](C)CC)C(=O)N[C@@H](CO)C(=O)N[C@@H](CCCNC(=N)N)C(N)=O` [Peptide 5, [Nac^0 -His^1,D-Arg^2,Phe(pCl)^6,Abu^15, Nle^27]hGH-RH(1-29)NH2] ({Acetyl(1-naphthyl)}-H[dR]DAI[Phe(4-Cl)]TNSYRKVL[Abu]QLSARKLLQDI[Nle]SR-NH2) the Ki was 0.05 ± 0.01 nM. `CCCC[C@H](NC(=O)[C@@H](NC(=O)[C@H](CC(=O)O)NC(=O)[C@H](CCC(N)=O)NC(=O)[C@H](CC(C)C)NC(=O)[C@H](CC(C)C)NC(=O)[C@H](CCCCN)NC(=O)[C@H](CCCNC(=N)N)NC(=O)[C@H](C)NC(=O)[C@H](CO)NC(=O)[C@H](CC(C)C)NC(=O)[C@H](CCC(N)=O)NC(=O)[C@H](CC)NC(=O)[C@H](CC(C)C)NC(=O)[C@@H](NC(=O)[C@H](CCCCN)NC(=O)[C@H](CCCNC(=N)N)NC(=O)[C@H](Cc1ccc(O)cc1)NC(=O)[C@H](CO)NC(=O)[C@H](CC(N)=O)NC(=O)[C@@H](NC(=O)[C@H](Cc1ccc(Cl)cc1)NC(=O)[C@@H](NC(=O)[C@H](C)NC(=O)[C@H](CC(=O)O)NC(=O)[C@@H](CCCNC(=N)N)NC(=O)[C@H](Cc1ccc(O)cc1)NC(=O)C(C)C)[C@@H](C)CC)[C@@H](C)O)C(C)C)[C@@H](C)CC)C(=O)N[C@@H](CO)C(=O)NCCCCNC(=N)N` [Peptide 19, Ibu^0,D-Arg^2, Phe(pCl)^6,Abu^15,Nle^27]hGH-RH(1-28)Agm] (Isobutyryl-Y[dR]DAI[Phe(4-Cl)]TNSYRKVL[Abu]QLSARKLLQDI[Nle]S-Agmatine) was tested, and the Ki was 0.12 ± 0.04 nM. `CCCC[C@H](NC(=O)[C@@H](NC(=O)[C@H](CC(=O)O)NC(=O)[C@H](CCC(N)=O)NC(=O)[C@H](CC(C)C)NC(=O)[C@H](CC(C)C)NC(=O)[C@H](CCCCN)NC(=O)[C@H](CCCNC(=N)N)NC(=O)[C@H](C)NC(=O)[C@H](CO)NC(=O)[C@H](CC(C)C)NC(=O)[C@H](CCC(N)=O)NC(=O)[C@H](CC)NC(=O)[C@H](CC(C)C)NC(=O)[C@@H](NC(=O)[C@H](CCCCN)NC(=O)[C@H](CCCNC(=N)N)NC(=O)[C@H](Cc1ccc(O)cc1)NC(=O)[C@H](CO)NC(=O)[C@H](CC(N)=O)NC(=O)[C@@H](NC(=O)[C@H](Cc1ccc(Cl)cc1)NC(=O)[C@@H](NC(=O)[C@H](C)NC(=O)[C@H](CC(=O)O)NC(=O)[C@@H](CCCNC(=N)N)NC(=O)[C@H](Cc1ccc(O)cc1)NC(=O)Cc1cccc2ccccc12)[C@@H](C)CC)[C@@H](C)O)C(C)C)[C@@H](C)CC)C(=O)N[C@@H](CO)C(=O)N[C@@H](CCCNC(=N)N)C(N)=O` [Peptide 1, [Nac^0,D-Arg^2, Phe(pCl)^6,Abu^15, Nle^27]hGH-RH(1-29)NH2] ({Acetyl(1-naphthyl)}-Y[dR]DAI[Phe(4-Cl)]TNSYRKVL[Abu]QLSARKLLQDI[Nle]SR-NH2) was tested, and the Ki was 0.04 ± 0.01 nM.
